Where “and” joins values, the source holds several entries; their conditions need not be identical. Equal values may be shown once.
What was measured:
SetDB1 H3K9me3 HMTase = settings: cited from earlier work
SCNT blastocysts = assay: ntESC derivation from SCNT blastocysts; assay type: cell-based, mouse
Protocol: Blastocysts were denuded by acid tyrode treatment and cultured on mitomycin treated MEF feeder cells and in DMEM supplemented with 5% FBS, 10% KnockOut serum replacement (Life Technologies #10828-028), 0.1 mM non-essential amino acids, 2 mM GlutaMAX, 50 U/ml penicillin-streptomycin, 0.1 mM 2-mercaptoethanol and 2000 U leukemia inhibitory factor (LIF, Millipore #ESG1107) at 37° C. 5% CO2. Four to five days later, outgrowths from attached embryos were dissociated with 0.25% trypsin and passaged all onto new feeder cells. On the following day, the medium was replaced with N2B27-LIF media [DMEM/F12 (Life Technologies #10565-042) supplemented with 0.1 mM non-essential amino acids, 2 mM GlutaMAX, 50 U/ml penicillin-streptomycin, 0.1 mM 2-mercaptoethanol, 0.5×N2 supplement (Life technologies #17502-048), 0.5× B27 supplement (Life technologies #17504-044), […] CHIR99021 (STEMGENT #04-0004), 0.5 μM PD0325901 (STEMGENT #04-0006) and 1000 U LIF]. Five days later, expanded cells were reseeded as established ntESC.

SCNT embryos = assay: Preimplantation development of SCNT embryos cultured in vitro; assay type: cell-based, mouse; settings: cumulus donor cells (BDF1, female), TSA treatment 15 nM for 8 h, water or mRNA 1800 ng/μl injected
From the text: C57BL/6J female mice were mated with DBA/2J males to produce B6D2F1/J (BDF1) mice. BDF1 and CD-1 (ICR) adult females were used for the collection of recipient oocytes and embryo transfer recipients, respectively. BDF1 mice were used for the collection of donor somatic cells for the analyses of development. (C57BL/6×CAST/EiJ) F1 mice were used for the collection of donor cells for RNA-seq. E13.5 embryos harboring GOF18 delta-PE (Jackson Laboratory, 004654: Tg(Pou5f1-EGFP)2Mnn, C57BL/6J background) were used for the isolation of mouse embryonic fibroblasts (MEF). All animal experiments were approved by the Institutional Animal Care and Use Committee of Harvard Medical School.
Cumulus cells were collected from adult BDF1 females through superovulation by injecting 7.5 IU of pregnant mare serum gonadotropin (PMSG; Harbor) and 7.5 IU of human chorionic gonadotropin (hCG; Millipore). Fifteen hours after the hCG injection, cumulus-oocyte complexes (COCs) were collected from the oviducts and briefly treated with Hepes-buffered potassium simplex-optimized medium (KSOM) containing 300 U/ml bovine testicular hyaluronidase (Calbiochem #385931) to obtain dissociated cumulus cells. Sertoli cells were collected from testes of 3- to 5-day-old BDF1 male mice as described (Matoba et al., 2011). Testicular masses were incubated in PBS containing 0.1 mg/ml collagenase (Life Technologies #17104-019) for 30 min at 37° C. followed by 5 min treatment with 0.25% Trypsine with 1 mM EDTA (Life Technologies #25200-056) at room temperature. After washing for four times with PBS containing 3 mg/ml bovine serum albumin, the dissociated cells were suspended in Hepes-KSOM medium.
Primary mouse embryonic fibroblast (MEF) cells were established from GOF18 delta-PE mouse embryos at 13.5 dpc. After removal of head and all organs, minced tissue from remaining corpus was dissociated in 500 μl of 0.25% Trypsine with 1 mM EDTA for 10 min at 37° C. Cell suspension was diluted with equal amount of DMEM (Life Technologies #11995-073) containing 10% FBS and Penicillin/Streptomycin (Life Technologies #15140-022) and pipetted up and down for 20 times. The cell suspension was diluted with fresh medium and plated onto 100 mm dishes and cultured at 37° C. Two days later, MEF cells were harvested and frozen. Frozen stocks of MEF cells were thawed and used for experiments after one passage.
siRNAs against mouse Suv39h1 (Life Technologies #s74607), Suv39h2 (Life Technologies #s82300) and Setdb1 (Life Technologies #s96549) were diluted in nuclease free water at 50 μM stock solutions. siRNAs were introduced to MEFs with Lipofectamine RNAi Max (Life technologies #35050-061) following manufacturer's protocol. Briefly, 1×10^5 MEF cells were seeded onto 24-well plate (day 0; see FIG. 5A). Twenty-four hours later, […] siRNAs were transfected into MEF cells using Lipofectamine RNAi Max (day 1). Twenty-four hours after the first transfection, the culture media was changed to fresh M293T media [DMEM supplemented with 10% FBS, 0.1 mM non-essential amino acids (Life technologies #11140-050), 2 mM GlutaMAX (Life technologies #35050-079), 50 U/ml penicillin-streptomycin and 0.1 mM 2-mercaptoethanol (Life technologies #21985-023)] (day 2). On day 3, MEF cells were reseeded onto 24-well plates at the density of 1×10^5 cells. Then transfection was repeated once as described above (day 4). Forty-eight hours after the second transfection (day 6), MEF cells were used for immunostaining, RT-qPCR or SCNT.
Somatic cell nuclear transfer was carried out as described previously (Matoba et al., 2011). Briefly, recipient MII oocytes were collected from superovulated adult BDF1 females by brief treatment with 300 U/ml bovine testicular hyaluronidase (Calbiochem). Isolated MII oocytes were enucleated in Hepes-buffered KSOM medium containing 7.5 μg/ml of cytochalasin B (Calbiochem #250233). […]

Suv39h2 = Suv39h2 (Homo sapiens, UniProt Q9H5I1); settings: cited from earlier work
[1] = cumulus donor cells (BDF1, female), TSA treatment 15 nM for 8 h, water or mRNA 1800 ng/μl injected

Chain of Suv39h2 (Q9H5I1 whole entry, species assumed): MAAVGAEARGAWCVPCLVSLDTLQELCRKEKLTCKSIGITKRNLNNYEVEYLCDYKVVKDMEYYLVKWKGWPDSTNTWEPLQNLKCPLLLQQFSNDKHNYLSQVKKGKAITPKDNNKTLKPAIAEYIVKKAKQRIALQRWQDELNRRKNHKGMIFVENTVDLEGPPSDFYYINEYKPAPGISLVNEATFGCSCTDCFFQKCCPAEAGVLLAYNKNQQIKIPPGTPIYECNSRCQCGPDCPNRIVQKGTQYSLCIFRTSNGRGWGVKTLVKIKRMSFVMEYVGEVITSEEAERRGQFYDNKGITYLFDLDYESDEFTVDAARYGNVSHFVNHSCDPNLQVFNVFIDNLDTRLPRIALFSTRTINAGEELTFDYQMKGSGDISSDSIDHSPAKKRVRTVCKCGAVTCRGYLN

Nc1nccc2c1ncn2[C@@H]1C=C(CO)[C@@H](O)[C@H]1O [DZNep, 3-Deazaneplanocin A]
levels of H3K27me3 and H3K9me3 (in words) (SetDB1 H3K9me3 HMTase): reduced levels of both H3K27me3 and H3K9me3

CC(/C=C/C(=O)NO)=C\[C@@H](C)C(=O)c1ccc(N(C)C)cc1 [TSA, trichostatin A, reference compound]
efficiency of attachment or ntESC derivation per blastocyst, compared to control (in words) (SCNT blastocysts; SCNT blastocysts from cumulus donor cells): did not show any significant difference | No. of blastocyst attached to feeder cells (SCNT blastocysts; [1]): 14 | No. of established ntESC lines (SCNT blastocysts; [1]): 8 | blastocyst attached to feeder cells (% per blast) (SCNT blastocysts; [1]): 70.0% | established ntESC lines (% per MII oocyte) (SCNT blastocysts; [1]): (18.2) % | established ntESC lines (% per blast) (SCNT blastocysts; [1]): (40.0) % | % 4-cell per 2-cell ± SD (SCNT embryos): 72.1 ± 10.9 % | % blast per 2-cell ± SD (SCNT embryos): 53.8% and 53.8 ± 6.2 % | % cleaved per 1-cell ± SD (SCNT embryos): 98.0 ± 3.4% | % morula per 2-cell ± SD (SCNT embryos): 60.8 ± 6.8 % | No. of blastocyst (SCNT embryos; ntESC derivation experiment): 20 | blastocyst (% per 1-cell) (SCNT embryos; ntESC derivation experiment): 51.3%

COc1cc2c(NC3CCN(C(C)C)CC3)nc(C3CCCCC3)nc2cc1OCCCN1CCCC1 [UNC0638, 2-Cyclohexyl-N-(1-isopropylpiperidin-4-yl)-6-methoxy-7-(3-(pyrrolidin-1-yl)propoxy)quinazolin-4-amine]
IC50 (Suv39h2): > 10 µM
